In one series the test system is Sirt1 knockout mice. Briefly: Partial hepatectomy in Sirt1 knockout mice and littermate controls, with NR. The format is in vivo, mouse. The procedure: Partial hepatectomy: 10-14 week old male transgenic mice underwent partial hepatectomy (PHx) according to the protocol of Mitchell and Willenbring between 8 AM and noon. Briefly, after isofluorane anesthesia, a ventral midline incision was made. Then the median and left lateral lobes, comprising 70% of the liver, were resected by pedicle ligation. For EdU (5-ethynyl-2′-deoxyuridine) labeling (Molecular probes), mice were injected intraperitoneally with the labeling reagent at a dose of 16 mg/kg, 5 h before sacrifice. Animals were sacrificed at 36 h or 48 h after PHx, as indicated. The resected and regenerating livers were snap frozen in liquid nitrogen, fixed in 4% paraformaldehyde, embedded in OCT medium (Tissue-TEK O.C.T compound, Sakura), or rapidly frozen in pre-chilled metal clamps in liquid nitrogen for NAD and ATP assays. All surgical procedures involving mice were approved by the Institutional Animal Care and Use Committee protocols of the University of Pennsylvania. Histology, Immunohistochemistry, and Immunofluoresence: Mitotic figures were counted in Hematoxylin and eosin stained slides. Paraffin embedded liver sections of 5 μm thickness were deparaffinized in Xylene followed by rehydration through a graded ethanol series were stained with Gill 3 hematoxylin (Thermo Scientific) and eosin (Sigma). Mitotically active areas were first screened under lower magnification. For quantification, total mitotic counts in 10 high power fields (40×) in the most mitotically active areas were considered. Representative photomicrographs were taken at 400× magnification using a light microscope coupled with a digital image acquisition system. For immunofluorescent detection of Nampt expression in paraffin sections, antigens were retrieved in R-buffer (Electron Microscopy Sciences Ct #62706-10) followed by quenching and blocking in Cas-Block (Invitrogen 00-8120) for 20 min. Slides were then incubated overnight at 4° C. in humidified chamber with primary rabbit polyclonal anti-NAMPT antibody (Bethyl Laboratories, dilution 1:1000). Goat anti-rabbit IgG (Alexa Fluor 488) was used as secondary antibody at dilution of 1:600 and slides were counter-stained with DAPI (Vector laboratories). For quantification, cells were examined and imaged using a Zeiss Axioplan 2 imaging system under a 20× objective taking both the central and portal venous areas. Studies were performed to determine the ability of NR to improve liver regeneration in the context of Sirt1 deletion, which impairs this process. Sirt1 knockouts and littermate controls were treated with NR (500 mgs/Kg/day) for 2 weeks prior to partial hepatectomy (PHx). […] In another assay, liver regeneration during the first 36 hour post PHx was compromised in Sirt1 knockout mice and restored by NR treatment. […]

In series [1] the test system is hepatocyte-specific Nampt deficient mice. Put plainly: Partial hepatectomy in hepatocyte-specific Nampt deficient mice (AAV-Cre) and AAV-Gfp littermate controls, with NR. It is filed as in vivo, mouse. The following applies: for Liver regeneration (EdU positive hepatocytes, liver to body weight ratio): first 48 hours after PHx, NR ~500 mg/kg/day. An excerpt: (§1) Animals, housing and drug treatment: Mice overexpressing Nampt in hepatocytes were obtained by crossing animals carrying an exogenous copy of the Nampt cDNA separated from the CAGGS promoter by a foxed stop cassette that were backcrossed to the C57BL/6J background (as described previously^7), with mice carrying Albumin-Cre (JAX strain B6.Cg-Tg(Alb-cre)21Mgn/J, stock number 003574). Littermates lacking Albumin Cre were used as controls. For studies on the adult onset of Nampt overexpression, 8-9 week old male Nampt^fl/fl and Nampt^wt/wt mice were injected with adeno-associated virus in the retroorbital plexus expressing either Cre recombinase (AAV-Cre) or enhanced green fluorescent protein (AAV-Gfp) under the control of thyroxine-binding globulin (Tbg) promoter (AAV-Cre). Nampt^fl/fl mice injected with AAV-Gfp and Namp^wt/wt injected with AAV-Cre served as controls. For inducible deletion of Nampt, mice originally created by Oberdan Leo at Université de Liège and backcrossed to the C57/BL6 background were employed and generously provided by Shin-Ichiro Imai at Washington University. As above, 8-9 week old male mice bearing two floxed alleles were injected retroorbitally with adeno-associated virus expressing either Cre recombinase (AAV-Cre) or enhanced green fluorescent protein (AAV-Gfp) under the control of thyroxine-binding globulin (Tbg) promoter. Fasting blood glucose was measured and partial hepatectomies were performed at >14 days after AAV infection in both the adult onset overexpression and liver-specific knock out cohorts. Animals were housed in groups of 4-5 mice/cage in pathogen-free barrier facility in a 12 h light-dark cycle with free access to food and water. For experiments containing only wild type animals, male C57BL/6J mice were ordered directly from Jackson Labs. For nicotinamide riboside (NR) (Chromadex Inc.) supplementation experiments, NR was dissolved in the drinking water at 3.0 mg/ml in light-protected bottles and was changed every 3 days. For fasting and re-feeding experiments, animals were fasted for 16 h with access to water ad libitum in cages containing Alpha-dri bedding. All animal work was performed in accordance with the U.S. Department of Health and Human Services Guide for the Care and Use of Laboratory Animals and with the approval of the University of Pennsylvania Institutional Animal Care and Use Committee.
(§2) Partial hepatectomy: 10-14 week old male transgenic mice underwent partial hepatectomy (PHx) according to the protocol of Mitchell and Willenbring between 8 AM and noon. Briefly, after isofluorane anesthesia, a ventral midline incision was made. Then the median and left lateral lobes, comprising 70% of the liver, were resected by pedicle ligation. For EdU (5-ethynyl-2′-deoxyuridine) labeling (Molecular probes), mice were injected intraperitoneally with the labeling reagent at a dose of 16 mg/kg, 5 h before sacrifice. Animals were sacrificed at 36 h or 48 h after PHx, as indicated. The resected and regenerating livers were snap frozen in liquid nitrogen, fixed in 4% paraformaldehyde, embedded in OCT medium (Tissue-TEK O.C.T compound, Sakura), or rapidly frozen in pre-chilled metal clamps in liquid nitrogen for NAD and ATP assays. All surgical procedures involving mice were approved by the Institutional Animal Care and Use Committee protocols of the University of Pennsylvania.
(§3) Histology, Immunohistochemistry, and Immunofluoresence: Mitotic figures were counted in Hematoxylin and eosin stained slides. Paraffin embedded liver sections of 5 μm thickness were deparaffinized in Xylene followed by rehydration through a graded ethanol series were stained with Gill 3 hematoxylin (Thermo Scientific) and eosin (Sigma). Mitotically active areas were first screened under lower magnification. For quantification, total mitotic counts in 10 high power fields (40×) in the most mitotically active areas were considered. […]

Another series concerns wild-type C57BL/6J mice. Put plainly: 2/3 partial hepatectomy (PHx) liver regeneration model, NR in the drinking water. It is filed as in vivo, mouse.
Excerpt: as §1, §2, §3

The test system of another series is hepatocyte. As to conditions: cited from earlier work.
Where [2] appears, read: Sirt1 deficient mice, NR 500 mgs/Kg/day for 2 weeks prior to PHx.
Setting [3] is: NR ~500 mg/kg, 48 hours post PHx.

Entries after “also recorded” stand apart in the source; their conditions may differ.

Regarding `NC(=O)c1ccc[n+]([C@@H]2O[C@H](CO)[C@@H](O)[C@H]2O)c1` [NR, nicotinamide riboside], in the series on Sirt1 knockout mice (setting [2]), the “Acute hepatic steatosis phenotype (H&E sections)” value is “partially rescued” and the Hepatic fatty changes entry is recorded as “attenuated”. Further, the “Liver regeneration during the first 36 hour post PHx” value in the series with Sirt1 knockout mice (Sirt1 knockout mice) was “restored”. Besides, the “Size of the regenerated livers compared to untreated livers” value in the series on Sirt1 knockout mice (both wild type and Sirt1 knockout mice, 36 hour post PHx) is reported as “increase”. In series [1] (Nampt KO mice, 48 hours after PHx), the Mitotic index entry is “largely restored”. Moreover, in series [1] (Nampt KO mice), the “Liver regeneration (EdU positive hepatocytes, liver to body weight ratio)” value was “restored”. Also, in series [1] (Nampt KO mice, listed as nicotinamide riboside), the “Liver regeneration (EdU positive hepatocytes, liver to body weight ratio)” value is reported as “completely rescued”. The “Reduction of hepatic triglycerides with NR treatment” value in series [1] (Nampt fl/fl AAV-Cre mice, 48 hours after PHx) is approximately 35%. Further, the “Petechial hemorrhage / pale regenerated livers (macroscopic)” value in series [1] (Nampt fl/fl AAV-Cre mice, NR ~500 mg/kg/day 2 weeks prior to PHx, 48 hours) is on record as “prevented”. Also, the “Hepatic fatty changes in NAMPT deficient regenerating livers (histology)” value in series [1] (Nampt fl/fl AAV-Cre, 48 hours after PHx) was “nearly normalized”. For the same compound, the “Reduction of hepatic triglycerides with NR treatment” value in series [1] (Nampt fl/fl AAV-Gfp mice, 48 hours after PHx) was 75%. The “Liver NAD content” value in series [1] (both genotypes (AAV-Gfp and AAV-Cre), before and after PHx) is given as “effectively increased”. Also, in series [1] (wild type (AAV-Gfp control) livers, 48 hours after PHx), the “Hepatic lipid accumulation in regenerating wild type livers (histology)” value was “abolished”. The “Increase of liver NAD content, pre hepatectomy” value in the series on wild-type C57BL/6J mice (NR 3 mg/mL in drinking water (~500 mg/kg) for 14 days, pre PHx, vs control mice) was approximately 35%. Besides, in the series on wild-type C57BL/6J mice (NR 3 mg/mL in drinking water (~500 mg/kg) from 14 days before PHx, 48 hours post PHx, vs control mice), the “Increase of liver NAD content, post hepatectomy” value is approximately 58%. Also, in the series with wild-type C57BL/6J mice (NR treated mice, pre or post hepatectomy, regenerating livers), the “Liver ATP levels” value was “enhanced”. In addition, in the series with wild-type C57BL/6J mice (setting [3]), the “Fatty changes (hepatic steatosis, micro and macro vesicular lipid droplets, hepatic triglyceride accumulation)” value is listed as “almost completely absent; also recorded: not evident”; the “Hepatocyte proliferation (incorporation of EdU into DNA)” value was “greatly enhanced”; the “Liver mass (liver to body weight ratio) after PHx” value was “significant improvement”. In addition, the “Macroscopic appearance of regenerating livers” value in the series with wild-type C57BL/6J mice (NR ~500 mg/kg, 48 hours post PHx, control livers pale, mottled) is “more uniformly colored”. Besides, the “Increase in mitotic activity (mitotic figures, H&E stained sections)” value with wild-type C57BL/6J mice (NR ~500 mg/kg, 48 hours post PHx, vs control) was 48%. Besides, the “Hepatic steatosis at 36 hours post-PHx” value in the series with wild-type C57BL/6J mice (NR-treated mice, 36 hours post-PHx) is on record as “Some steatosis was visible”.

On to `Oc1ccc(/C=C/c2cc(O)cc(O)c2)cc1` [resveratrol], for which, in the series on hepatocyte, the Hepatocyte replication result is given as “slow” and the “Hepatocyte survival in injury models” value was “improve”.

These data come from patent US11559522B2, “Methods for enhancing liver regeneration” (The Trustees of the University of Pennsylvania, priority 2016, dated 2023).
